Test results: patent US4389412A, “Substituted cyclopropanecarboxylic acid esters and pesticidal compositions containing the same as active ingredient” (priority 1979, dated 1983)
In brackets after ≈: the same amount, converted by molar mass. Like-named read-outs stand apart in the source and are kept apart here.

Key:
[1] = test system: green rice leafhoppers (Nephotettix cincticeps Uhler); assay: Mortality test with green rice leafhoppers by topical application method; settings: Nephotettix cincticeps, in Oryza sativa, 24 h; for mortality at 10 ng: read-out: Pesticidal effect, green rice leafhopper
Protocol: Mortality test with green rice leafhoppers (Nephotettix cincticeps Uhler) by topical application method
Then, the insects were kept at 25° C. with access to rice plant seedlings. The insects were used in groups of 15 individuals each.

[2] = test system: guppies (Lebistes reticulatus); assay: Fish toxicity test with guppies; format: in vivo; settings: Table 1; 48 hrs.
Protocol: (§1) Fish toxicity test with guppies (Lebistes reticulatus)
(§2) To 5 liters of water were added 250 mg of Sorpol SM-200 (trademark, Toho Chemical Co., Ltd.) as a surfactant and 2.5 ml of an acetone solution containing one of the test compounds in a predetermined concentration. The mixture was stirred thoroughly to prepare a test water. Ten female guppies (Lebistes reticulatus) of from 3 to 4 months of age were released into the test water which was maintained at 20° C. and the TLm (median tolerance limit, ppm) was determined.

[3] = Fish toxicity test with guppies; format: in vivo, Lebistes reticulatus; settings: guppy, water, guppies, 20° C., read-out: TLm (48 hrs.)
Protocol: as §1, §2

[4] = test system: houseflies (Musca domestica); assay: Mortality test with houseflies by topical application method; settings: 24 h; for mortality at 0.001 mg: read-out: Pesticidal effect, housefly
Protocol: Mortality test with houseflies (Musca domestica) by topical application method
Each of the compounds according to this invention and the control compounds (Table 2) was accurately weighted and a 0.1% solution of each sample in acetone was prepared. Female adult houseflies (Musca domestica) resistant to organophosphorus pesticides, were anesthetized with ether and 0.5 μl or 1.0 μl of the above solution was micropipetted onto the prothoracic dorsal region of each insect. The insects were then put in a high-walled dish together with feed and the dish was covered with a wire-mesh cover and kept at a temperature of 25° C. The test insects were used in groups of 30 individuals each. After 24 hours the insects were examined for deaths and the percent mortality was calculated.

[5] = test system: tobacco cutworm (Prodenia litura); assay: Utility Example-5: spray on soy bean leaves, tobacco cutworm larvae; format: in vivo; settings: 48 h, 2 days
Protocol: An acetone solution of one of the test compounds as mentioned in Table 13 and Tween-20 (the same surfactant as mentioned hereinbefore) was prepared. This acetone solution was diluted with water to prepare a solution containing the test compound in a predetermined concentration. Leaves of soy bean in pots were sprayed with the above diluted solution at the rate of 20 ml/pot and, after one day, ten 3-instar larvae of tobacco cutworm (Prodenia litura) were released on the leaves. The pots were kept in a constant-temperature chamber at 25° C.

[6] = Fish toxicity safety factor (TLm divided by maximum concentration in cover water); design: species or system carp; settings: in vivo, TLm / maximum concentration in cover water at LC50 application (100 l per 10 ares, 5 cm depth)
Protocol: To further confirm the low toxicity to fish and high pesticidal activity of Compounds (1) and (2) according to this invention as evidenced by the fish toxicity tests with carps and the above tests, fish toxicity safety factors were calculated from the fish toxicity and pesticidal test data. These fish toxicity safety factors are indicators of safety to fish inhabiting a paddy field to which Compounds (1) and (2) may be actually applied for pest control purposes.
It is first assumed that such a pesticidal solution would normally be applied at the rate of 100 l per 10 ares of paddy field. It is also assumed that a solution (100 l) corresponding to the LC50 of the compounds would be applied to 10 ares of a paddy field carrying a cover water with a depth of 5 cm above ground surface and that all the solution would then find its way into the cover water. The expected maximum concentration of the compound in the cover water is then calculated. The fish toxicity safety factor of a pesticidal compound is defined as the value obtained by dividing the TLm (ppm) of the particular compound by the maximum concentration of the compound in cover water. The meaning of the value of the fish toxicity safety factor being one (1) is that the maximum concentration of the particular compound in cover water corresponds to the TLm of said compound. It is understood that when the pesticidal compound having a fish toxicity safety factor value of less than one (1) is applied to a paddy field, it has a risk of destroying the fish inhabiting there, and that the higher the safety factor value, the higher is the safety of the compound to fish.
This fish toxicity safety factor will now be explained in further detailed by taking the trans-isomer of Compound (2) of this invention as an example.
On the other hand, the toxicity to fish of this compound is TLm >10 ppm. Therefore, by dividing the TLm (i.e. >10 ppm) by the above cover water maximum concentration (i.e. 0.36 ppm), we obtain a fish toxicity safety factor of >28. Thus, the concentration of the trans-isomerof Compound (2) which kills 50% of pests corresponds to less than 1/28 of the concentration of the same isomer which kills 50% of fish. In other words, this means that the trans-isomer of Compound (2) is extremely safe to fish.

[7] = Toxicity test with water-fleas; format: in vivo, Daphnia pulex; settings: water, 25±1° C., read-out: TLm, Water-flea (6 hrs.)
Protocol: Toxicity test with water-fleas (Daphnia pulex)
An acetone solution of one of the test compounds as mentioned in Table 10 and Tween-20 (the same surfactant as mentioned hereinbefore) was prepared. To 100 ml of water in a high-walled dish (9 cm in diameter, 7 cm deep) was added the above acetone solution. The mixture was stirred thoroughly to prepare an aqueous solution containing the test compound in a predetermined concentration. This was used as a test water. Twenty water-fleas (Daphnia pulex) were released into each test water which was maintained at 25±1° C. After 6 hours, the water-fleas were examined for deaths. The TLm (median tolerance limit, ppm) was determined.

[8] = test system: brown planthoppers (Nilaparvata lugens Stal); assay: Utility Example-1: LC50 on adult brown planthoppers on dipped rice plants; format: in vivo; settings: Nilaparvata lugens, 24 h, 25° C., read-out: Pesticidal activity LC50
Protocol: A 1% emulsifiable concentrate of each test compound as prepared by the procedure described in Formulation Example 2 was diluted with water to prepare a test solution of predetermined concentration.
Rice plants, 4 weeks after sowing (cultivated in a pot 6 cm in diameter, 7 seedlings) were dipped in the above solution and after allowing them to dry in the air, the pot was covered with a wire-mesh cage. Then, 30 adult brown planthoppers (Nilaparvata lugens Stal) were released into the cage and the pot was kept in a constant-temperature chamber at 25° C.

[9] = Fish toxicity test with carp; format: in vivo, Cyprinus carpio L; settings: carp, water, 48 hrs., 21±1° C.; read-out: TLm, Carp (48 hrs.)
Protocol: Fish toxicity test with carp (Cyprinus carpio L)
An acetone solution of one of the test compounds as mentioned in Table 10 and Tween-20 (the same surfactant as mentioned hereinbefore) was prepared. To 50 liters of water (30 cm deep) in a glass tank was added the above acetone solution. The mixture was stirred thoroughly to prepare an aqueous solution containing the test compound in a predetermined concentration. This was used as a test water. Five carps (Cyprinus carpio L) with a body weight of about 6 g and a body length of about 6 cm were released into each test water which was maintained at 21±1° C. After 48 hours, the test fish was examined for death. The TLm (median tolerance limit, ppm) was determined. The test water was moderately aerated.

carp and water flea = assay: Fish toxicity ranking according to Japanese regulations; design: species or system Cyprinus carpio L; Daphnia pulex; settings: from TLm for carp and water flea
Protocol: The above ranking with symbols A, B and C were determined according to Japanese regulations relative to application of agricultural chemicals, and these symbols are defined as follows: […]
A: TLm (48 hrs.) value >10 ppm for carp and TLm (3 hrs.) value >0.5 ppm for water flea, wherein toxicity to fishes is not observed by usual application.
B: TLm (48 hrs.) value 10-0.5 ppm for carp; or TLm (48 hrs.) value >10 ppm for carp and TLm (3 hrs.) value <0.5 ppm for water flea, wherein appreciable toxicity to fishes is not observed by usual application but may be observed when applied to wide area at one time.
C: TLm (48 hrs.) value <0.5 ppm for carp, wherein toxicity to fishes is so strongly observed by usual application that both the application method and application area are strictly restricted.

[10] = test system: rice stem borers (Chilo suppressalis Walker); assay: Mortality test with rice stem borers by topical application method; format: in vivo; settings: for mortality at 0.001 mg: read-out: Pesticidal effect, rice stem borer
Protocol: Mortality test with rice stem borers (Chilo suppressalis Walker) by topical application method
Using a microsyringe, 0.5 μl of the above solution was applied to the thoracic abdominal region of each final-instar larva of rice stem borer (Chilo suppressalis Walker). […] The test larvae were used in groups of 20 individuals each.

[11] = test system: tobacco cutworms (Prodenia litura Fabricius); assay: Mortality test with tobacco cutworms by topical application method; format: in vivo
Protocol: Mortality test with tobacco cutworms (Prodenia litura Fabricius) by topical application method
Using a microsyringe, 0.5 μl of the above solution was dripped onto the thoracic adbominal region of each of 3-instar tobacco cutworm (Prodenia litura Fabricius) larvae. […] The test larvae were used in groups of 20 individuals each.

[12] = Fish toxicity test with killifish; format: in vivo, Orizias latipes; settings: water, killifish, 25±1° C., read-out: TLm (48 hrs.)
Protocol: Fish toxicity test with killifish (Orizias latipes)
An acetone solution of one of the test compounds as mentioned in Table 8 was prepared by adding said test compound to 15 ml of acetone. To 10 liters of water was added a predetermined amount of the above acetone solution and the mixture was stirred thoroughly to prepare an aqueous solution containing the test compound in a predetermined concentration. This was used as a test water. After the each test water was moderately aerated, ten killifishes (Orizias latipes) with a body weight of about 0.25 g and a body length of about 2.5 cm were released into said each test water which was maintained at 25±1° C. After 48 hours, the test fish was examined for death. The TLm (median tolerance limit, ppm) was determined.

[13] = 24 h, read-out: Pesticidal effect, tobacco cutworm

SMILES | mortality at 0.01 µg/female [1] | mortality at 0.1 µg/female [1] | mortality at 1 µg/female [1] | mortality at 10 ng [1] | Toxicity to fish TLm, guppy [2] | LC50 at 48 h [3] | mortality at 0.5 µg/female [4] | mortality at 1 µg/female [4] | mortality at 0.001 mg [4] | mortality at 6.5 ppm [5] | mortality at 13 ppm [5] | selectivity ratio [6] | LC50 [8] | LC50 at 48 h [9] | Ranking (carp and water flea) | mortality at 1 µg/larva ([10]; 24 h) | mortality at 10 µg/larva ([10]; 24 h) | mortality at 0.001 mg ([10]; 24 h) | mortality at 0.0001 mg [11, 13] | further results
C#CC(OC(=O)C1C(C=C(Cl)Cl)C1(C)C)c1cccc(Oc2ccccc2)c1 (stereo not drawn) [Compound (F)] | 100% | 100% | 100% | 100% | < 0.5 ppm | < 0.5 mg/L | 100% | 100% | 100% | – | – | – | – | – | – | – | – | – | – | –
C#CC(OC(=O)C1C(C=C(Cl)Cl)C1(C)C)c1cccc(Oc2ccc(Br)cc2)c1 (stereo not drawn) | – | – | – | – | – | – | – | – | – | 0% | 90% | – | – | – | – | – | – | – | – | –
CC1(C)C(C=C(Cl)Cl)C1C(=O)OCc1cccc(Oc2ccc(Cl)cc2)c1 (stereo not drawn) [Compound (1) cis-/trans- = 20:80] | – | – | – | – | – | – | – | – | – | – | – | 2.5 | 520 mg/L (≈ 1220 µM) | 2.6 mg/L (≈ 6.11 µM) | B (TLm (48 hrs.) value 10-0.5 ppm for carp; or TLm (48 hrs.) value >10 ppm for carp and TLm (3 hrs.) value <0.5 ppm for water flea, wherein appreciable toxicity to fishes is not observed by usual application but may be observed when applied to wide area at one time.) | – | – | – | – | LC50 at 6 h [7]: > 40 mg/L
CC1(C)C(C=C(Br)Br)C1C(=O)OC(C#N)c1cccc(Oc2ccccc2)c1 (stereo not drawn) [Compound (D), Decamethrin] | 100% | 100% | 100% | 100% | < 0.5 ppm | < 0.5 mg/L | 100% | 100% | 100% | – | – | – | – | 0.0051 mg/L (≈ 0.0101 µM) | C (TLm (48 hrs.) value <0.5 ppm for carp, wherein toxicity to fishes is so strongly observed by usual application that both the application method and application area are strictly restricted.) | 100% | 100% | 100% | 100% | –
CC1(C)C(C=C(Cl)Cl)C1C(=O)OCc1cccc(Oc2ccc(Br)cc2)c1 (stereo not drawn) | – | – | – | – | – | – | – | – | – | 10% | 100% | – | – | – | – | – | – | – | – | –
CC1(C)C(C=C(Cl)Cl)C1C(=O)OC(C#N)c1cccc(Oc2ccc(Br)cc2)c1 (stereo not drawn) [Compound (H)] | 100% | 100% | 100% | 100% | – | – | 100% | 100% | 100% | 40% | 100% | – | – | 0.063 mg/L (≈ 0.127 µM) | C (TLm (48 hrs.) value <0.5 ppm for carp, wherein toxicity to fishes is so strongly observed by usual application that both the application method and application area are strictly restricted.) | 90% | 100% | 90% | 60% | mortality at 0.0001 mg ([11]; 24 h): 60%
CC(C)C(C(=O)OC(C#N)c1cccc(Oc2ccc(Cl)cc2)c1)c1ccc(Cl)cc1 (stereo not drawn) [Compound (L)] | – | – | – | – | – | – | – | – | – | – | – | 0.0071 | 2260 mg/L (≈ 4970 µM) | 0.032 mg/L (≈ 0.0704 µM) | C (TLm (48 hrs.) value <0.5 ppm for carp, wherein toxicity to fishes is so strongly observed by usual application that both the application method and application area are strictly restricted.) | – | – | – | – | mortality at 1 µg/larva ([10]; 1.0 μg/Larva, final-instar larva, 24 hours, read-out: % Mortality): 85%; mortality at 10 µg/larva ([10]; 10 μg/Larva, final-instar larva, 24 hours, read-out: % Mortality): 100%; mortality at 0.0001 mg ([11]; 0.1 μg/Larva, 3-instar larvae, 24 hours, read-out: % Mortality): 35%
CC1(C)C(C=C(Cl)Cl)C1C(=O)OC(C#N)c1cccc(Oc2ccc(Cl)cc2)c1 (stereo not drawn) [Compound (G) cis-/trans- = 50:50] | 100% | 100% | 100% | 100% | < 1.0 ppm | < 1 mg/L | 100% | 100% | 100% | – | – | 0.04 | 450 mg/L (≈ 998 µM) | 0.04 mg/L (≈ 0.0887 µM) | C (TLm (48 hrs.) value <0.5 ppm for carp, wherein toxicity to fishes is so strongly observed by usual application that both the application method and application area are strictly restricted.) | 90% | 100% | 90% | 65% | LC50 at 48 h [12]: 0.15 mg/L (≈ 0.333 µM); mortality at 0.0001 mg ([11]; 24 h): 65%
